According to ChEMBL document CHEMBL1133035, “Cysteine chloromethyl and diazomethyl ketone derivatives with potent anti-leukemic activity” (Bioorg Med Chem Lett, 2000):
Where a SMILES comes first, the peptide text is derived from it. The star is where a group is joined. Farnesyl = CC(C)=CCC/C(C)=C/CC/C(C)=C/C*; Boc = CC(C)(C)OC(=O)*; CHN2 = [N-]=[N+]=C*; CH2Cl = ClC*

Assays:
MOLT-3 = experiment: Anti-leukemic activity against Molt-3 (T-lineage ALL) human acute lymphoblastic leukemia (ALL) cell line; type: functional, cell-based
NALM-6 = experiment: Anti-leukemic activity against Nalm-6 (B-lineage ALL) human acute lymphoblastic leukemia (ALL) cell line; type: functional, cell-based

| Compound | IC50 (MOLT-3) [µM] | IC50 (NALM-6) [µM] |
| --- | --- | --- |
| CC(=O)N[C@@H](CSC/C=C(\C)CCC=C(C)C)C(=O)C=[N+]=[N-] | > 100 | > 100 |
| CC(C)=CCC/C(C)=C/CC/C(C)=C/CSC[C@H](NC(=O)OC(C)(C)C)C(=O)CCl | 7.7 | 10.7 |
| CCCCCCCCCCCCSC[C@H](NC(C)=O)C(=O)C=[N+]=[N-] | 22.9 | 15.4 |
| CC(=O)N[C@@H](CSC/C=C(\C)CC/C=C(\C)CCC=C(C)C)C(=O)CCl | 1.4 | 3 |
| CCCCCCCCCCCCSC[C@H](NC(=O)OC(C)(C)C)C(=O)CCl | 15.5 | 15.1 |
| CC(C)=CCC/C(C)=C/CC/C(C)=C/CSCC(=O)CCl | > 100 | 84.3 |
| CC(C)=CCC/C(C)=C/CC/C(C)=C/CSC[C@H](NC(=O)OC(C)(C)C)C(=O)C=[N+]=[N-] | 50.1 | 49.8 |
| CCCCCCCCCCCCSC[C@H](N)C(=O)CCl | 12.5 | 17.7 |
| CC(C)=CCC/C(C)=C/CC/C(C)=C/CSC[C@H](NC(=O)CNC(=O)OC(C)(C)C)C(=O)C=[N+]=[N-] (Boc-Gly-Cys(Farnesyl)-CHN2) | 84.5 | 51.3 |

Now from value to compound:

| IC50 (MOLT-3) [µM] | IC50 (NALM-6) [µM] | Compound |
| --- | --- | --- |
| 32.2 | 30.3 | CC(=O)N[C@@H](CSC/C=C(\C)CC/C=C(\C)CCC=C(C)C)C(=O)C=[N+]=[N-] |
| 7.9 | 12.6 | CC(=O)N[C@@H](CSCC=C(C)C)C(=O)CCl |
| > 100 | > 100 | CC(=O)N[C@@H](CSC/C=C(\C)CCC=C(C)C)C(=O)CCl |
| 35.5 | 40.7 | CC(C)=CCC/C(C)=C/CC/C(C)=C/CSCCC(=O)CCl |
| > 100 | > 100 | CC(=O)N[C@@H](CSCC=C(C)C)C(=O)C=[N+]=[N-] |
| 2.3 | 2 | CCCCCCCCCCCCSC[C@H](NC(C)=O)C(=O)CCl |
| 17.5 | 12.9 | CC(C)=CCC/C(C)=C/CC/C(C)=C/CSC[C@H](NC(=O)CNC(=O)OC(C)(C)C)C(=O)CCl (Boc-Gly-Cys(Farnesyl)-CH2Cl) |
